{"source": "ChEMBL document CHEMBL1932957", "about": "“Synthesis of 2H-benzo[b][1,4]oxazin-3(4H)-one derivatives as platelet aggregation inhibitors” (Bioorg Med Chem Lett, 2012)", "data": [{"assay": "Antiplatelet activity in rabbit platelet rich plasma assessed as inhibition of ADP-induced platelet aggregation treated for 5 mins before ADP challenge measured for 6 mins by microplate reader", "format": "functional, cell-free", "conditions": "Oryctolagus cuniculus", "units": {"IC50": "µM"}, "values": [{"smiles": "CCCN1C(=O)COc2cc(CNc3ccccc3)ccc21", "IC50": 10.1}, {"smiles": "CCCCN1C(=O)COc2cc(CNc3ccccc3)ccc21", "IC50": 15.2}, {"smiles": "CCCN1C(=O)COc2cc(CNc3ccccc3C)ccc21", "IC50": 18.8}, {"smiles": "CCCCN1C(=O)COc2cc(CNc3ccccc3C)ccc21", "IC50": 18.8}, {"smiles": "CCCN1C(=O)COc2cc(CNc3cccc(C)c3)ccc21", "IC50": 13.9}, {"smiles": "CCCCN1C(=O)COc2cc(CNc3cccc(C)c3)ccc21", "IC50": 12.7}, {"smiles": "CCCN1C(=O)COc2cc(CNc3ccc(C)cc3)ccc21", "IC50": 14.2}, {"smiles": "CC(=O)Oc1ccccc1C(=O)O", "note": "[ASPIRIN]", "IC50": 6.07}, {"smiles": "Clc1ccccc1CN1CCc2sccc2C1", "note": "[TICLOPIDINE]", "IC50": 3.18}]}]}
